From article PMC5883364 (Malaria Journal, 2018)
Values joined by “and” are separate entries in the source; they are usually repeats but may differ in a detail not shown here. Identical values can stand only once. “Also recorded” adds a separate entry of the source. Like-named read-outs stand apart in the source and are kept apart here.

Assays:
[1] = system: V79 (Chinese hamster lung) cells; settings: for Selectivity index LD50 (V79)/IC50 (3D7): V79 vs 3D7; for Selectivity index LD50 (V79)/IC50 (Dd2): V79 vs Dd2; for LD50 V79: Chinese hamster, 24 h; for Selectivity index LD50 (V79)/IC50 (IPC4912): V79 vs IPC4912; for Selectivity index LD50 (V79)/IC50 (IPC5202): V79 vs IPC5202
Experimental: (§1) Cytotoxicity was assessed on the mammalian cell lines HepG2-A16 (human hepatoma) and V79 (Chinese hamster lung), using a MTT based assay, as previously described. […] V79 and HepG2 cell lines were incubated for 24 and 48 h, respectively (media changed at 24 h intervals). Absorbance was read at 570 nm on a multi-mode microplate reader (Triad, Dynex Technologies), to produce a log dose-dependence curve. The LD50 value for each compound was estimated by non-linear interpolation of the dose-dependence curve (GraphPad Software).

[2] = system: HepG2-A16 (human hepatoma) cells; settings: for Selectivity index LD50 (HepG2)/IC50 (3D7): HepG2 vs 3D7; for Selectivity index LD50 (HepG2)/IC50 (Dd2): HepG2 vs Dd2; for Selectivity index LD50 (HepG2)/IC50 (IPC4912): HepG2 vs IPC4912; for Selectivity index LD50 (HepG2)/IC50 (IPC5202): HepG2 vs IPC5202; for LD50 HepG2: human, 48 h
Experimental: as §1

[3] = system: P. falciparum 3D7 (chloroquine and mefloquine sensitive); parameters: method as in Lobo et al, 2016; settings: strain 3D7; ref Lobo et al, 2016; read-out: P. falciparum IC50 ± SD, 3D7; cited from earlier work
[4] = system: P. falciparum Dd2 (chloroquine-resistant, mefloquine-resistant); parameters: method as in Lobo et al, 2016; settings: ref Lobo et al, 2016, cited from earlier work
[5] = system: P. falciparum IPC4912 (artemisinin-resistant, K13 I543T); experiment: SYBR Green I assay, IC50, strain IPC4912; assay type: cell-based, Plasmodium falciparum; settings: for Resistance Index RIc = IC50 (IPC4912)/IC50 (3D7): IPC4912 vs 3D7; for IC50: Plasmodium falciparum, read-out: P. falciparum IC50 ± SD, IPC4912
Experimental: Staging and parasitaemia were determined by light microscopy of Giemsa-stained thin blood smears. Anti-malarial activity was determined using the SYBR Green I assay, as previously described. Briefly, early ring stage parasites (> 80% of rings) were challenged with a 1:3 serial dilution of each compound, in concentrations ranging from 10,000–0.169 nM. Fluorescence intensity was measured with a multi-mode microplate reader (Triad, Dynex Technologies), with excitation and emission wavelengths of 485 and 535 nm, respectively, and analysed by nonlinear regression using GraphPad Prism to determine IC50 values.

Plasmodium berghei NK65 = experiment: Peters' 4-day suppressive test in Swiss albino mice; assay type: in vivo; settings: for in vivo outcome against P. berghei in words: followed to day 10; for inhibition in vivo at 50 mg/kg/day: Plasmodium berghei
Experimental: (§2) In vivo tests were performed following the Guidelines for Ethical Conduct in The Care and Use of Animals of the Federal University of Rio Grande do Norte—Brazil (CEUA/UFRN/46/2013). Evaluation of anti-malarial activity in vivo was carried out using the Peters’ 4-day suppressive test, with modifications, as previously described. Swiss albino mice were infected with Plasmodium berghei NK65 and randomly allocated to groups of five animals. Animals were treated with 50 mg/kg/day of each of the tested compounds (dissolved in PBS containing 1% DMSO), administrated orally, for four consecutive days. The control group was treated with a solution of PBS/1% DMSO. On days 5 (D5), 7 (D7) and 10 (D10) after parasite inoculation, tail blood smears were Giemsa-stained and examined microscopically to estimate parasitaemia. Acute toxicity testing was carried out to determine adverse effects due to compounds (including weight loss, hair appearance, skin wounds and behavioural changes), and recorded daily.

Swiss albino mice = experiment: Acute toxicity observation in treated mice; assay type: in vivo; settings: 50 mg/kg/day oral, monitored daily
Experimental: as §2

[6] = system: P. falciparum IPC5202 (artemisinin-resistant, K13 R539T); experiment: SYBR Green I assay, IC50, strain IPC5202; assay type: cell-based, Plasmodium falciparum; settings: for Resistance Index RIb = IC50 (IPC5202)/IC50 (3D7): IPC5202 vs 3D7; for IC50: Plasmodium falciparum, read-out: P. falciparum IC50 ± SD, IPC5202, strain IPC5202
Experimental: (§3) Staging and parasitaemia were determined by light microscopy of Giemsa-stained thin blood smears. Anti-malarial activity was determined using the SYBR Green I assay, as previously described.

[7] = system: P. falciparum IPC5202 ring-stage parasites; experiment: Ring-stage survival assay (RSA), IPC5202; assay type: cell-based, Plasmodium falciparum
Experimental: (§4) Ring-stage survival assays (RSA) were carried out as described in [21], with modifications. Parasite cultures were synchronized once, with 5% sorbitol, and in the next reinvasion cycle, twice, with a 6 h interval. […] Then, plates were centrifuged and supernatant replaced by drug-free culture media. After additional incubation during 66 h for ring-stage, and 42 h for mature-stage, susceptibility was assessed microscopically on Giemsa-stained thin blood smears by estimating the percentage of viable parasites that developed into a second generation of rings or trophozoites.

[8] = system: P. falciparum 3D7 mature-stage parasites; settings: typical value, strain not stated; cited from earlier work
[9] = system: P. falciparum 3D7 ring-stage parasites; experiment: Ring-stage survival assay (RSA), 3D7; assay type: cell-based, Plasmodium falciparum; settings: 6 h pulse, 10 x IC50 (DHA 700 nM), ART-S strain 3D7
Experimental: as §4

[10] = system: P. falciparum 3D7 (chloroquine and mefloquine sensitive); experiment: SYBR Green I assay, IC50, strain 3D7; assay type: cell-based, Plasmodium falciparum; settings: read-out: P. falciparum IC50 ± SD, 3D7
Experimental: as §3

[11] = mice, 50 mg/kg/day oral for 4 days, day 5
[12] = mice, 50 mg/kg/day oral for 4 days

O=C1CCC2(CC1)OOC1(O2)C2CC3CC(C2)CC1C3 (centres unmarked) [LC50]
Selectivity index LD50 (V79)/IC50 (3D7) [1]: 71428.6
Selectivity index LD50 (V79)/IC50 (Dd2) [1]: 42372.8
Selectivity index LD50 (HepG2)/IC50 (3D7) [2]: 71428.6
Selectivity index LD50 (HepG2)/IC50 (Dd2) [2]: 42372.8
IC50 [3]: 14 ± 6.7 nM
Resistance Index RIa = IC50 (Dd2)/IC50 (3D7) ([4]; Dd2 vs 3D7): 1.7
IC50 ([4]; strain Dd2, read-out: P. falciparum IC50 ± SD, Dd2): 23.6 ± 8.4 nM

CC(C)(C)OC(=O)NCCCCNC(=O)C1CCC2(CC1)OOC1(O2)C2CC3CC(C2)CC1C3 (centres unmarked) [MIS13]
LD50 V79 [1]: > 1 mM
Selectivity index LD50 (V79)/IC50 (3D7) [1]: 135135.1
Selectivity index LD50 (V79)/IC50 (Dd2) [1]: 294117.6
Selectivity index LD50 (V79)/IC50 (IPC4912) [1]: 3333333.3
Selectivity index LD50 (V79)/IC50 (IPC5202) [1]: 588235.2
Selectivity index LD50 (HepG2)/IC50 (3D7) [2]: 44594.6
Selectivity index LD50 (HepG2)/IC50 (Dd2) [2]: 97058.8
Selectivity index LD50 (HepG2)/IC50 (IPC4912) [2]: 1100000.0
Selectivity index LD50 (HepG2)/IC50 (IPC5202) [2]: 194117.6
LD50 HepG2 [2]: 0.3 mM
decrease in HepG2 survival ([2]; maximum dose of 1 mM): ~30%
Resistance Index RIc = IC50 (IPC4912)/IC50 (3D7) [5]: 0.04
IC50 [5]: 0.3 ± 0.3 nM
in vivo outcome against P. berghei in words (Plasmodium berghei NK65; 50 mg/kg/day oral for 4 days): by day 10 the five mice were cured; also recorded: totally suppressed P. berghei parasitaemia
inhibition in vivo at 50 mg/kg/day (Plasmodium berghei NK65; po, 120 h, read-out: % inhibition of parasite growth, Day 5): 92.6%
inhibition in vivo at 50 mg/kg/day (Plasmodium berghei NK65; po, 168 h, read-out: % inhibition of parasite growth, Day 7): 98.6%
inhibition in vivo at 50 mg/kg/day (Plasmodium berghei NK65; po, 240 h, read-out: % inhibition of parasite growth, Day 10): 100%
mice presenting parasitaemia, day 5 (Plasmodium berghei NK65; groups of five mice, 50 mg/kg/day oral, day 5): 1/5
Mean parasitaemia ± SD, Day 5 (Plasmodium berghei NK65; [11]): 0.11 ± 0.19%
Mean parasitaemia ± SD, Day 7 (Plasmodium berghei NK65; [12]): 0.05 ± 0.10%
Mean parasitaemia ± SD, Day 10 (Plasmodium berghei NK65; [12]): 0%
adverse effects in vivo (Swiss albino mice): no adverse effects were observed
Resistance Index RIb = IC50 (IPC5202)/IC50 (3D7) [6]: 0.23
IC50 [6]: 1.7 ± 1.1 nM

C[C@H]1[C@@H](O)O[C@@H]2O[C@@]3(C)CC[C@H]4[C@H](C)CC[C@@H]1[C@@]24OO3 [DHA, dihydroartemisinin, reference compound]
LD50 V79 [1]: > 1 mM
LD50 HepG2 [2]: 1.0 mM
IC50 [5]: 3.7 ± 2 nM
viability at 0.7 µM ([7]; Plasmodium falciparum, 6 h, read-out: Ring-stage survival rate (RSA), percentage of viable parasites, IPC5202): ≤ 25%
viable mature-stage parasites allowed [8]: ~1%
IC50 [6]: 6.2 ± 1.6 nM

C1C2CC3CC1CC(C2)C31OOC2(CCC(Nc3nnn[nH]3)CC2)OO1 (centres unmarked) [LC163]
LD50 V79 [1]: > 1 mM
Selectivity index LD50 (V79)/IC50 (3D7) [1]: 15873.0
Selectivity index LD50 (V79)/IC50 (Dd2) [1]: 22988.5
Selectivity index LD50 (V79)/IC50 (IPC4912) [1]: 53763.4
Selectivity index LD50 (V79)/IC50 (IPC5202) [1]: 14064.7
Selectivity index LD50 (HepG2)/IC50 (3D7) [2]: 15873.0
Selectivity index LD50 (HepG2)/IC50 (Dd2) [2]: 22988.5
Selectivity index LD50 (HepG2)/IC50 (IPC4912) [2]: 53763.4
Selectivity index LD50 (HepG2)/IC50 (IPC5202) [2]: 14064.7
LD50 HepG2 [2]: 1.0 mM
Resistance Index RIc = IC50 (IPC4912)/IC50 (3D7) [5]: 0.30
IC50 [5]: 18.6 ± 16.9 nM
Ring-stage survival rate (RSA), percentage of viable parasites, 3D7 [9]: 6.9 ± 1.6% and > 1%
Ring-stage survival rate (RSA), percentage of viable parasites, IPC5202 ([7]; 6 h pulse, 10 x IC50 (DHA 700 nM), ART-R strain IPC5202): 2.0 ± 1.9% and > 1%
IC50 ([10]; Plasmodium falciparum, 3D7, strain 3D7): < 100 nM
IC50 ([10]; strain 3D7): 63 ± 0.7 nM
in vivo outcome against P. berghei in words (Plasmodium berghei NK65; 50 mg/kg/day oral for 4 days): recrudescence also occurred on day 10
inhibition in vivo at 50 mg/kg/day (Plasmodium berghei NK65; 120 h, mice, 50 mg/kg/day oral for 4 days, day 5, vs control group, read-out: % inhibition of parasite growth, Day 5 (converted)): 100%
inhibition in vivo at 50 mg/kg/day (Plasmodium berghei NK65; 168 h, mice, 50 mg/kg/day oral for 4 days, day 7, vs control group, read-out: % inhibition of parasite growth, Day 7 (converted)): 100%
inhibition in vivo at 50 mg/kg/day (Plasmodium berghei NK65; 240 h, mice, 50 mg/kg/day oral for 4 days, day 10, vs control group, read-out: % inhibition of parasite growth, Day 10 (converted)): 96.5%
Mean parasitaemia ± SD, Day 5 (Plasmodium berghei NK65; [11]): 0%
Mean parasitaemia ± SD, Day 7 (Plasmodium berghei NK65; [12]): 0%
Mean parasitaemia ± SD, Day 10 (Plasmodium berghei NK65; [12]): 0.2 ± 0.13%
Resistance Index RIb = IC50 (IPC5202)/IC50 (3D7) [6]: 1.13
IC50 [6]: 71.1 ± 1.1 nM
